Experimental data from patent US9440941B2, “Substituted chroman-6-yloxy-cycloalkanes and their use as pharmaceuticals” (SANOFI, priority 2013, dated 2016).

Columns and labels:
human NCX1 [1] = target: T1, human NCX1 (Homo sapiens, UniProt P32418); assay: Inhibition of Ca2+ efflux out of cells (NCX1 forward mode), FLIPR calcium assay; type: cell-based; details: CHO cells stably expressing human NCX1; Ca2+ efflux after Ionomycin; read-out: NCX1fw IC50 (inhibition of NCX1 in forward mode)
T1 construct: expressed in transfected cells
From the text: The sodium/calcium exchanger NCX1 can transport calcium ions and sodium ions through the cell membrane. The transport is an exchange of Ca^2+ and Na^+ in two directions depending on membrane potential and ion gradients. At the first direction, named “forward mode” or “calcium export mode”, Ca^2+ is transported out of the cell and Na^+ is transported into the cell. At the other direction, named “reverse mode” or “calcium import mode”, the transport directions are vice versa. The effect of the compounds of the invention on NCX1 was determined in CHO cells stably expressing human NCX1 (gene symbol SLC8A1; cf. WO 2009/115238). The assay is based on the monitoring of intracellular Ca^2+ concentrations using a calcium-sensitive fluorescence dye which is detected by means of a FLIPR device (Fluorimetric Imaging Plate Reader, Molecular Devices).
Assay Technology—Forward Mode
The assay is based on the monitoring of intracellular Ca^2+ concentrations using the PBX Calcium Assay Kit from BD (Becton, Dickinson and Company) with calcium indicator dye 51-9000177BKa (BD, 640177). CHO cells expressing NCX1 were loaded with the dye, and after a preincubation period with the test compound, lonomycin (Calbiochem, 407950) was added. lonomycin is an ionophor for Ca^2+ ions mediating an increase of intracellular Ca^2+ ions. Consequently, intracellular Ca^2+ ions are exchanged against extracellular Na^+ ions (Ca^2+ efflux, forward mode). The decrease of intracellular Ca^2+ ions was detected by measuring the fluorescence of the calcium indicator dye at a wavelength of 520 nm by a FLIPR device.
Briefly, similarly as for the reverse mode, for the forward mode transport assay 18000 cells per well were seeded into a 96 well microplate (Corning COSTAR 3904) and incubated overnight in culture medium (cf. above). A total volume of 100 μl medium per well was used. For the preparation of the FLIPR assay, the culture medium was removed from the plates and 100 μl of assay buffer (133.8 mM NaCl (Sigma, S5886); 4.7 mM KCl (Sigma, P3911); 1.25 mM MgCl2 (Merck, 1.05833.0250); 3.5 mM CaCl2 (Merck, 1.02083.0250); 5 mM glucose (Sigma, G7021); 10 mM Hepes (Sigma, H4034); pH 7.4)) were added to each well in a washing step. Assay buffer was removed, and 100 μl of a solution of the test compound in assay buffer in different concentrations were added into the wells. Further, 100 μl of dye solution (0.09% (v/v) calcium indicator dye, 9.1% (v/v) signal enhancer (from PBX Calcium Assay Kit); in assay buffer) were added into each well. The plates were incubated in the dark at room temperature for 60 min. Meanwhile a 10 μM solution of lonomycin in assay buffer (additionally containing 0.05% fetal calf serum (cf. above); 4° C.) was prepared and stored in the wells of a 96 well microplate (96 well microplate, polypropylene, U-shape (Greiner Bio-One, 650201)). The fluorescence monitoring was performed at 60 measuring points with measurement intervals of 2 sec. After the fifth measuring point, 50 μl of the lonomycin solution were added to each well of the assay plate to give a final lonomycin concentration of 2 μM. For the determination of the IC50 values the minimal fluorescence value was subtracted from the maximal fluorescence value for the fifteenth to fifty-fifth measuring points. The calculation of the IC50 values via the percentage inhibitions of Ca^2+ efflux out of cells (forward mode) effected by the test compound was performed in Biost@t Speed 2.0. “NCX1fw IC50” in Table 2 means the IC50 value (in μM (micromol/liter)) for inhibition of NCX1 in forward mode.

human NCX1 [2] = target: T1, human NCX1; assay: Inhibition of Ca2+ influx into cells (NCX1 reverse mode), FLIPR Fluo-4 assay; type: cell-based; details: inhibition of NCX1 in reverse mode (Ca2+ influx into cells); read-out: NCX1rv IC50
In short: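 CHO cells stably expressing human NCX1, loaded with Fluo-4 AM, preincubated with compound 45 min at 16 °C in pH 7.4 buffer (3.5 mM CaCl2). Reverse mode triggered by 20 µM gramicidin (final); Fluo-4 fluorescence read at 520 nm every 2 s. IC50 from percentage inhibition of max-minus-min fluorescence.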

Cc1ccccc1C1CCc2cc(O[C@H]3CC[C@@H](C(=O)NCCO)CC3)ccc2O1 (single isomer, unassigned) [Example 269, cis-4-(2-o-tolyl-chroman-6-yloxy)-cyclohexanecarboxylic acid (2-hydroxy-ethyl)-amide]
IC50 (human NCX1 [1]): 3.1 µM | IC50 (human NCX1 [2]): 400 nM

Cc1ccccc1C1CCc2cc(O[C@H]3CC[C@@H](C(=O)NCCO)CC3)ccc2O1 (single isomer, unassigned) [Example 270, cis-4-(2-o-tolyl-chroman-6-yloxy)-cyclohexanecarboxylic acid (2-hydroxy-ethyl)-amide]
IC50 (human NCX1 [1]): 1 µM | IC50 (human NCX1 [2]): 100 nM

Cc1ccccc1[C@H]1CCc2cc(O[C@H]3CC[C@H](C(=O)NCCO)CC3)ccc2O1 [Example 267, trans-4-((R)-2-o-tolyl-chroman-6-yloxy)-cyclohexanecarboxylic acid (2-hydroxy-ethyl)-amide]
IC50 (human NCX1 [1]): 4.4 µM | IC50 (human NCX1 [2]): 200 nM

N-(2-Ethylsulfanylethyl)-4-(2-phenylchroman-6-yloxy)-cyclohexylamine [compound 131]
IC50 (human NCX1 [2]): 600 nM

N-(2-Hydroxy-1,1-dimethyl-ethyl)-4-(2-phenylchroman-6-yloxy)-cyclohexanecarboxamide [compound 151]
IC50 (human NCX1 [2]): 1300 nM

N-(2-Methoxyethyl)-4-(2-phenylchroman-6-yloxy)-cyclohexylamine [compound 132]
IC50 (human NCX1 [2]): 700 nM

N-(2-tert-Butoxyethyl)-4-(2-phenylchroman-6-yloxy)-cyclohexylamine [compound 135]
IC50 (human NCX1 [2]): 800 nM

N-(3,3-Dimethylbutyl)-4-(2-phenylchroman-6-yloxy)-cyclohexylamine [compound 152]
IC50 (human NCX1 [2]): 1400 nM

N-(3-Hydroxypropyl)-4-(2-phenylchroman-6-yloxy)-cyclohexanecarboxamide [compound 150]
IC50 (human NCX1 [2]): 900 nM

N-(3-Methylbutyl)-4-(2-phenylchroman-6-yloxy)-cyclohexylamine [compound 130]
IC50 (human NCX1 [2]): 800 nM

N-((S)-2-Methoxy-1-methyl-ethyl)-4-(2-phenylchroman-6-yloxy)-cyclohexylamine [compound 140]
IC50 (human NCX1 [2]): 1400 nM

N-But-3-enyl-4-(2-phenylchroman-6-yloxy)-cyclohexylamine [compound 148]
IC50 (human NCX1 [2]): 900 nM

N-Cyclobutyl-4-(2-phenylchroman-6-yloxy)-cyclohexylamine [compound 142]
IC50 (human NCX1 [2]): 600 nM

N-Cyclopentyl-4-(2-phenylchroman-6-yloxy)-cyclohexylamine [compound 143]
IC50 (human NCX1 [2]): 800 nM

N-Pentyl-4-(2-phenylchroman-6-yloxy)-cyclohexylamine [compound 144]
IC50 (human NCX1 [2]): 600 nM

N-[1-(Methoxymethyl)propyl]-4-(2-phenylchroman-6-yloxy)-cyclohexylamine [compound 133]
IC50 (human NCX1 [2]): 1000 nM

N-[2-(1,1-Dioxo-thiomorpholin-4-yl)ethyl]-4-(2-phenylchroman-6-yloxy)-cyclohexylamine [compound 138]
IC50 (human NCX1 [2]): 600 nM

N-[2-(1-Isopropylpiperidin-4-yl)ethyl]-4-(2-phenylchroman-6-yloxy)-cyclohexylamine [compound 136]
IC50 (human NCX1 [2]): 1800 nM
